Columns and labels:
[1] = test system: HepG2; experiment: Cytotoxicity against human HepG2 cells at 10 uM after 24 hrs by MTT colorimetric assay; format: cell-based; conditions: hepg2, 24 h
[2] = test system: Plasmodium falciparum; experiment: Antiplasmodial activity against Plasmodium falciparum 3D7 infected in O positive erythrocytes assessed as inhibition of parasite growth at 30 uM by FACS-based assay; format: functional
[3] = test system: Plasmodium falciparum; experiment: Antiplasmodial activity against Plasmodium falciparum 3D7 infected in O positive erythrocytes assessed as inhibition of parasite growth at 10 uM by FACS-based assay; format: functional
[4] = test system: Plasmodium falciparum; experiment: Antiplasmodial activity against Plasmodium falciparum 3D7 infected in O positive erythrocytes assessed as inhibition of parasite growth at 1 uM by FACS-based assay; format: functional
[5] = test system: Plasmodium falciparum; experiment: Antiplasmodial activity against Plasmodium falciparum 3D7 infected in O positive erythrocytes assessed as inhibition of parasite growth at 50 uM by FACS-based assay; format: functional
[6] = test system: HepG2; experiment: Cytotoxicity against human HepG2 cells at 100 uM after 24 hrs by MTT colorimetric assay; format: cell-based; conditions: hepg2, 24 h
[7] = test system: Plasmodium falciparum; experiment: Antiplasmodial activity against Plasmodium falciparum 3D7 infected in O positive erythrocytes assessed as inhibition of parasite growth at 20 uM by FACS-based assay; format: functional
[8] = test system: Plasmodium falciparum; experiment: Antiplasmodial activity against Plasmodium falciparum 3D7 infected in O positive erythrocytes assessed as inhibition of parasite growth at 40 uM by FACS-based assay; format: functional
[9] = test system: Plasmodium falciparum; experiment: Antiplasmodial activity against Plasmodium falciparum 3D7 infected in O positive erythrocytes assessed as inhibition of parasite growth at 500 nM by FACS-based assay; format: functional
[10] = test system: HepG2; experiment: Cytotoxicity against human HepG2 cells at 1 uM after 24 hrs by MTT colorimetric assay; format: cell-based; conditions: hepg2, 24 h
[11] = test system: Plasmodium falciparum; experiment: Antiplasmodial activity against Plasmodium falciparum 3D7 infected in O positive erythrocytes assessed as parasitemia at 50 uM after 48 hrs by FACS-based assay (reference value: 3.484%); format: functional
[12] = test system: Plasmodium falciparum; experiment: Antiplasmodial activity against Plasmodium falciparum 3D7 infected in O positive erythrocytes assessed as parasitemia at 50 uM after 36 hrs by FACS-based assay (reference value: 1.617%); format: functional
[13] = test system: Plasmodium falciparum; experiment: Antiplasmodial activity against Plasmodium falciparum 3D7 infected in O positive erythrocytes assessed as parasitemia at 50 uM after 24 hrs by FACS-based assay (reference value: 1.670%); format: functional

SMILES | Activity [1] | inhibition at 30 µM [2] | inhibition at 10 µM [3] | inhibition at 1 µM [4] | inhibition at 50 µM [5] | Activity [6] | inhibition at 20 µM [7] | inhibition at 40 µM [8] | inhibition at 0.5 µM [9] | Activity [10] | Activity [11] | Activity [12] | Activity [13]
CN(C)C[C@@H]1Cc2ccccc2[C@@]2(C)C[C@@]3(C(=O)Nc4ccccc43)C(=O)N12 | -4% | 52.4% | 14.8% | 2.64% | 64.6% | -4% | 37% | 59.1% | 0.721% | -7% | – | – | –
CN(C)C[C@@H]1Cc2ccccc2[C@@]2(C)C[C@@]3(C(=O)Nc4cc(N)ccc43)C(=O)N12 | -6% | – | 5.38% | – | 10.1% | -39% | – | – | – | -52% | – | – | –
C[C@]12CCC(=O)N1[C@H](CO)Cc1ccccc12 | – | – | 5.67% | – | 19.1% | – | – | – | – | – | – | – | –
C[C@]12C[C@]3(C(=O)NCC3c3ccccc3)C(=O)N1[C@H](CO)Cc1ccccc12 (stereo not given in full) | -19% | – | – | – | – | -41% | – | – | – | -29% | – | – | –
C=CCC1(CC=C)C[C@]2(C)c3ccccc3C[C@@H](CO)N2C1=O | – | – | 2.27% | – | 3.1% | – | – | – | – | – | – | – | –
CN(C)C[C@@H]1Cc2ccccc2[C@@]2(C)CCC(=O)N12 | – | – | 1.92% | – | 12.7% | – | – | – | – | – | – | – | –
CN(C)C[C@@H]1Cc2ccccc2[C@@]2(C)C[C@]3(C(=O)Nc4cc(N)ccc43)C(=O)N12 | 5% | 53.9% | 6.54% | 2.88% | 82.3% | -36% | 34.6% | 62.5% | 0% | -23% | – | – | –
C[C@]12CC3(CCCC3)C(=O)N1[C@H](CO)Cc1ccccc12 | -15% | – | 0.971% | – | 1.53% | 10% | – | – | – | -63% | 1.06% | 1.407% | 1.024%
CCOC(=O)C1C[C@]2(C)c3ccccc3C[C@@H](CN(C)C)N2C1=O (stereo not given in full) | – | – | 7.19% | – | 74.5% | – | – | – | – | – | – | – | –
C[C@]12C[C@@]3(C(=O)NCC3c3ccccc3)C(=O)N1[C@H](CO)Cc1ccccc12 (stereo not given in full) | – | – | – | – | – | – | – | – | – | – | 1.058% | 1.255% | 1.209%
CCOC(=O)[C@]1(c2ccc([N+](=O)[O-])cc2[N+](=O)[O-])C[C@]2(C)c3ccccc3C[C@@H](CN(C)C)N2C1=O | – | 48.9% | 71.6% | 0% | 89.6% | – | 21.1% | 61.5% | 0% | – | 1.283% | 1.217% | 1.737%
COC(=O)C1(C(C[N+](=O)[O-])c2ccccc2)C[C@]2(C)c3ccccc3C[C@@H](CO)N2C1=O (mixture of isomers) | -3% | – | 1.21% | – | 1.9% | -55% | – | – | – | -45% | – | – | –
CCOC(=O)[C@@]1(c2ccc([N+](=O)[O-])cc2[N+](=O)[O-])C[C@]2(C)c3ccccc3C[C@@H](CN(C)C)N2C1=O | – | 52.9% | 0.385% | 5.77% | 91.5% | – | 48.1% | 66.5% | 0% | – | 0.9355% | 1.571% | 1.421%
CN(C)C[C@@H]1Cc2ccccc2[C@@]2(C)C[C@]3(C(=O)Nc4ccccc43)C(=O)N12 | 1% | 48.1% | 30.1% | 1.92% | 59.7% | -29% | 44.2% | 51.9% | 0% | -54% | – | – | –
C[C@]12CC3(CC=CC3)C(=O)N1[C@H](CO)Cc1ccccc12 | -24% | – | 1.8% | – | 2.13% | -155% | – | – | – | -5% | 0.9149% | 1.161% | 0.7444%
